# Structures can show the parent of a compound that is named as a salt.
# Target: T1, human MCHR1 (Homo sapiens, UniProt Q99705)
# T1 construct: The full-length cDNA for human MCHR1 was cloned; expressed in transfected cells; host or cells: AV12 cells previously transfected with Galpha15
# Assay: 125I-MCH competitive binding assay with clone 43 membranes (SPA)
# Settings: 125I-MCH binding, Ki from IC50 by Cheng-Prusoff
# Protocol: The full-length cDNA for human MCHR1 was cloned from a human adult brain cDNA library (Edge Biosystems, Cat. 38356) by standard polymerase chain reaction (PCR) methodology employing the following primers: sense, 5′-GCCACCATGGACCT GGAAGCCTCGCTGC-3′; anti-sense, 5′-[…]-3′. The PCR reaction was performed in a final volume of 50 μl containing 5 μl of a 10× stock solution of PCR buffer, 1 μl of 10 mM dNTP mixture (200 μM final), 2 μl of 50 mM Mg(SO4) (2 mM final), 0.5 μl of 20 μM solutions of each primer (0.2 μM final), 5 μl of template cDNA containing 0.5 ng DNA, 0.5 μl of Platinum Taq High Fidelity DNA polymerase (Gibco Life Technologies) and […] of H2O. PCR amplification was performed on a Perkin Elmer 9600 thermocycler. After denaturation for 90 sec at 94° C., the amplification sequence consisting of 94° C. for 25 sec, 55° C. for 25 sec and 72° C. for 2 min was repeated 30 times, followed by a final elongation step at 72° C. for 10 min. The desired PCR product (1.1 Kb) was confirmed by agarose gel electrophoresis and the band was extracted from the gel by Geneclean (Bio101) following the manufacturer's instructions. Following extraction, the cDNA fragment was cloned into pCR2.1-TOPO plasmid (Invitrogen Corp) to confirm the identity and sequence.
# In order to generate cell lines stably expressing MCHR1, the insert was then subcloned into the Xba I and Not I sites of pcDNA(+)-3.1-neomycin (Invitrogen). After purification by Qiagen Maxi-prep kit (QIAGEN, Inc.), the plasmid was transfected by Fugene 6 (Roche Applied Science) into AV12 cells that had been previously transfected with the promiscuous G protein Gα15. The transfected cells were selected by G418 (800 μg/ml) for 10-14 days and single colonies were isolated from culture plates. The G418-resistant colonies were further selected for MCHR1 expression by measuring MCH-stimulated Ca^2+ transients with a fluorometric imaging plate reader (FLIPR, Molecular Devices).
# Both the ^125I-MCH binding and functional GTPγ^35S binding assays employed membranes isolated from a clone designated as clone 43. Typically, cells from 20 confluent T225 flasks were processed by washing the monolayers in cold phosphate-buffered saline (PBS), scraping the cells into same and re-suspending the cell pellet in 35 ml of 250 mM Sucrose, 50 mM HEPES, pH 7.5, 1 mM MgCl2, 24 μg/ml DNase I, and protease inhibitors (1 Complete® tablet, per 50 ml of buffer prepared, Roche Diagnostics). Alternatively, greater levels of cells could be generated by adapting cell growth to suspension culture in 20 L stirred vessel bioreactors. After incubation on ice for 5 min, cells were disrupted with 20-25 strokes of a Teflon/Glass homogenizer attached to an overhead motorized stirrer, and the homogenate was centrifuged at 40,000 rpm in Beckman Type 70.1 Ti rotor. The pellets were re-suspended in 250 mM Sucrose, 50 mM HEPES, pH 7.5, 1.5 mM CaCl2, 1 mM MgSO4 and protease inhibitors by Teflon/Glass homogenization to achieve a protein concentration of ˜3-5 mg/ml (Pierce BCA assay with Bovine serum albumin as standard). Aliquots were stored at −70° C.
# Binding of compounds to MCHR1 was assessed in a competitive binding assay employing ^125I-MCH, compound and clone 43 membranes. Briefly, assays are carried out in 96-well Costar 3632 white opaque plates in a total volume of 200 μl containing 25 mM HEPES, pH 7.0, 10 mM CaCl2, 2 mg/ml bovine serum albumin, 0.5% dimethyl sulfoxide (DMSO), 5 μg of clone 43 membranes, 200 pM ^125I-MCH (NEN), 0.625 mg/ml of wheat germ agglutinin scintillation proximity assay beads (WGA-SPA beads, Amersham Inc., now GE Healthcare) and a graded dose of test compound. Non-specific binding is assessed in the presence of 0.1 μM unlabeled MCH. Bound ^125I-MCH is determined by placing sealed plates in a Microbeta Trilux (Perkin Elmer Life and Analytical Sciences Inc.) and counting after a 12 hr delay. […]
# T1 sequence (Q99705 whole entry): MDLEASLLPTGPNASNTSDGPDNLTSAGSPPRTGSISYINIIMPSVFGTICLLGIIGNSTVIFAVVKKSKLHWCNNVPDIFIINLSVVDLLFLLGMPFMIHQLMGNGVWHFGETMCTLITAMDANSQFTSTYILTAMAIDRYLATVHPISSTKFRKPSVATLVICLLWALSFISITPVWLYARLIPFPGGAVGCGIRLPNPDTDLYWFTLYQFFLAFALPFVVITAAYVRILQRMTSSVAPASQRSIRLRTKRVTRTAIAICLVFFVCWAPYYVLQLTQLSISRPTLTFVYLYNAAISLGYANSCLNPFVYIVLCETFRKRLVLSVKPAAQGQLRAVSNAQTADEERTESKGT
row,SMILES,Ki
1,"O=C1c2sc(-c3ccc(Cl)cc3)nc2CCN1c1ccc2c(c1)ncn2CCN1CCCC1 [Example 2, 2-(4-Chloro-phenyl)-5-[1-(2-pyrrolidin-1-yl-ethyl)-1H-benzoimidazol-5-yl]-6,7-dihydro-5H-thiazolo[5,4-c]pyridin-4-one]",39.7 nM
2,"COc1cc(-n2ccc3nc(-c4ccc(Cl)cc4)sc3c2=O)ccc1OCCN1CC(C)(C)OC(C)(C)C1 [Example 65, 2-(4-Chloro-phenyl)-5-{3-methoxy-4-[2-(2,2,6,6-tetramethyl-morpholin-4-yl)-ethoxy]-phenyl}-5H-thiazolo[5,4-c]pyridine-4-one Hydrochloride]",35.8 nM

# The remaining lines, values ahead:
row,Ki,SMILES
1,19 nM,"COc1cc(N2CCc3nc(-c4ccc(Cl)cc4)sc3C2=O)ccc1OCCN1CCCCC1 [Example 15, 2-(4-Chloro-phenyl)-5-[3-methoxy-4-(2-piperidin-1-yl-ethoxy)-phenyl]-6,7-dihydro-5H-thiazolo[5,4-c]pyridin-4-one]"
2,10.2 nM,"Cc1cc2cc(N3CCc4nc(-c5ccc(Cl)cc5)sc4C3=O)ccc2n1CCN1CCCC1 [Example 5, 2-(4-Chloro-phenyl)-5-[2-methyl-1-(2-pyrrolidin-1-yl-ethyl)-1H-indol-5-yl]-6,7-dihydro-5H-thiazolo[5,4-c]pyridin-4-one]"
3,5.13 nM,"COc1cc(N2CCc3nc(-c4ccc(Cl)cc4)sc3C2=O)ccc1OCCN(C)C [Example 33, 2-(4-Chloro-phenyl)-5-[4-(2-dimethylamino-ethoxy)-3-methoxy-phenyl]-6,7-dihydro-5H-thiazolo[5,4-c]pyridin-4-one]"
4,3.16 nM,"Cl.Cn1cc(CCN2CCCC2)c2ccc(N3CCc4nc(-c5ccc(Cl)cc5)sc4C3=O)cc21 [Example 47, 2-(4-Chloro-phenyl)-5-[1-methyl-3-(2-pyrrolidin-1-yl-ethyl)-1H-indol-6-yl]-6,7-dihydro-5H-thiazolo[5,4-c]pyridin-4-one hydrochloride]"

# Test system: not listed separately
# Assay: In vivo efficacy: 3 day body weight change in diet-induced obese rats
# Settings: 10 mg/kg oral gavage once a day for 3 days; 3 day cumulative; diet-induced obese male Long-Evans rats
# Protocol: Vehicle consisted of 1% CMC and 0.25% PS-80 in water.
# Animals were individually housed in a temperature regulated room (24° C.) with a reverse 12 hour light/dark cycle (dark 10:00/22:00). Water and food (Teklad 95217, Harlan, Wis.) were available ad libitum. Compounds were dosed orally once a day before onset of dark for 3 days. Daily food intake and body weight change were measured for the 3 day period.
row,SMILES,Body weight reduction @ 10 mg/Kg versus vehicle control. Data expressed in grams.
1,"Cl.Cn1cc(CCN2CCCC2)c2ccc(N3CCc4nc(-c5ccc(Cl)cc5)sc4C3=O)cc21 [Example 47, 2-(4-Chloro-phenyl)-5-[1-methyl-3-(2-pyrrolidin-1-yl-ethyl)-1H-indol-6-yl]-6,7-dihydro-5H-thiazolo[5,4-c]pyridin-4-one hydrochloride]",7.2 grams
2,"COc1cc(-n2ccc3nc(-c4ccc(Cl)cc4)sc3c2=O)ccc1CCCN1CCCC1.Cl [Example 52, 2-(4-Chloro-phenyl)-5-[3-methoxy-4-(3-pyrrolidin-1-yl-propyl)-phenyl]-5H-thiazolo[5,4-c]pyridin-4-one hydrochloride]",9.6 grams
3,COc1cc(-n2ccc3nc(-c4ccc(Cl)cc4)sc3c2=O)ccc1OCc1cncn1C [Example 42],1.7 grams
